Results: US20260364027A1, “ENHANCER OF CARDIOLIPIN MOLECULAR SPECIES AS MITOCHONDRIAL COMPONENT” (WATANABE OYSTER LABORATORY, CO., LTD., priority 2022, published 2026)

How the values were obtained:
PNPLA8 = assay: qPCR expression of CL remodeling/degradation-related gene PNPLA8 in HK-2 cells under oxidative stress; format: cell-based, human; details: oxidative stress (100 μM BSO) + DHMBA 250 or 500 μM, 24 h, HK-2, β-actin corrected, control = 1
Method: (§1) FIG. 6 is an explanatory drawing for describing changes in the expression levels of genes related to CL remodeling and degradation of DHMBA under oxidative stress conditions. HK-2 cells were cultured with 100 μM BSO and 250 or 500 μM DHMBA, and then the expression levels of genes related to […] were measured by qPCR. Mean±SD (n=4).
(§2) Therefore, in the present invention, the analysis of the expression levels of genes related to cardiolipin biosynthesis, remodeling, and degradation in response to oxidative stress stimulation was verified.
(§3) HK-2 cells were seeded in a 6-well plate at a density of 5.0×10^4 cells/well and cultured for 24 hours.
(§4) Next, under the same stimulus conditions as described above, 2 mL thereof was added to each well. […] The concentration of the purified RNA was quantified by Nanodrop (Invitrogen). […]
(§5) The gene expression levels were measured according to a protocol for THUNDERBIRD (registered trademark) SYBR (registered trademark) qPCR Mix (TOYOBO). Measurements were performed using a CFX Connect™ real-time PCR analysis system (BioRad), and analyzed using a 2^−(ΔΔCT) method.
(§6) The gene expression level of the control group was set at 1 for comparison. The figures are expressed as mean±SD (n=4 for each group). […]
(§7) The data obtained were expressed as mean±standard deviation (SD), and statistical analysis was performed using JMP Pro 16 (SAS Institute Inc.). […]

HADHB = assay: qPCR expression of CL remodeling/degradation-related gene HADHB in HK-2 cells under oxidative stress; format: cell-based, human; details: oxidative stress (100 μM BSO) + DHMBA 250 or 500 μM, 24 h, HK-2, β-actin corrected, control = 1
Method: as §1, §2, §3, §4, §5, §6, §7

CDS2 = assay: qPCR expression of CL biosynthesis-related gene CDS2 in HK-2 cells under oxidative stress; format: cell-based, human; details: oxidative stress (100 μM BSO) + DHMBA 250 or 500 μM, 24 h, HK-2, β-actin corrected, control = 1
Method: FIG. 5 is an explanatory drawing for describing changes in expression level of CL biosynthesis-related genes of DHMBA under oxidative stress conditions. HK-2 cells were cultured with 100 μM BSO and 250 or 500 μM DHMBA, and then the expression levels of CL biosynthesis-related genes were measured by qPCR. Mean±SD (n=4).
as §2, §3, §4, §5, §6, §7

[1] = tested on: antioxidant gene groups (such as HO-1 and NQO1); details: background, to date; cited from earlier work
mitochondria = details: under oxidative stress conditions; results so far; cited from earlier work
Keap1-Nrf2 pathway = details: background, to date; cited from earlier work
[2] = background; compared with existing antioxidants; cited from earlier work
[3] = tested on: human renal proximal tubule cells (HK-2); assay: Cardiolipin measurement by LC-MS/MS in HK-2 cells under oxidative stress stimulation (molecular species, total content, acyl groups); format: cell-based; details: oxidative stress (100 μM BSO) + DHMBA 250 or 500 μM
Method: FIG. 2 is an explanatory drawing for describing increase effects of DHMBA on CL molecular species under oxidative stress conditions. HK-2 cells were cultured with 100 μM BSO and 250 or 500 μM DHMBA, and then recovered and CL was measured using LC-MS/MS. Mean±SD (n=4).
FIG. 3 is an explanatory drawing for describing increase effects of DHMBA on total CL content under oxidative stress conditions. HK-2 cells were cultured with 100 μM BSO and 250 or 500 μM DHMBA, and then recovered and CL was measured using LC-MS/MS. Mean±SD (n=4).
FIG. 4 is an explanatory drawing for describing CL acyl group modification due to addition of DHMBA under oxidative stress conditions. HK-2 cells were cultured with 100 μM BSO and 250 or 500 μM DHMBA, and then recovered and CL was measured using LC-MS/MS. Mean±SD (n=4).
Human renal proximal tubule cells (HK-2) were subcultured in Dulbecco's Modified Eagle's Medium (DMEM, Nacalai Tesque) containing 10% fetal bovine serum and 1% penicillin-streptomycin at 37 °C in a 5% CO2 incubator. The following experiments were conducted using the oxidative stress inducer to confirm the cardiolipin increase effect of DHMBA on the oxidative stress.
HK-2 cells were seeded in a 6-well plate at a density of 1.0×10^5 cells/well and cultured for 24 hours. The cells were then divided into four groups with different stimulus conditions, and 2 mL thereof was added to each well.
The above-described four groups with the different stimulus conditions are as follows.
Control group (culture medium); oxidative stress group (final concentration 100 μM Oxidative Stress); oxidative stress+DHMBA 250 group (final concentration 100 μM Oxidative Stress+final concentration 250 μM DHMBA); and oxidative stress+DHMBA 500 group (final concentration 100 μM Oxidative Stress+final concentration 500 μM DHMBA).
After 24 hours, the cells were washed twice with phosphate-buffered saline (hereinafter referred to as PBS), and then 1 mL of PBS was added to each well and the cells were recovered using a scraper. In this cell suspension, 100 μL was used for protein quantification by a bicinchoninic acid (BCA) method. The protein concentration was used for correction of the cardiolipin concentration. The remaining cell suspension was centrifuged at 1,200 rpm for 5 minutes, the supernatant was removed, and then the precipitated cells were stored at −80 °C.
For the cardiolipin measurement, the total intracellular lipids were extracted in the same way as in the previous reports (Chen Z, et al. Metabolomics, 16: 115, 2020). […]
as §7

[4] = background, to date; cited from earlier work

For `COc1c(O)cc(CO)cc1O` [DHMBA, 3,5-dihydroxy-4-methoxy benzyl alcohol], the “PNPLA8 gene expression level” value (PNPLA8) was “decreased to the same level as the control group”, the “HADHB gene expression level” value (HADHB) was “increased” and the “CDS2 gene expression level” value (CDS2) was “decreased to the same level as the control group”. For the same compound, the “Induction of the expression of antioxidant gene groups (such as HO-1 and NQO1)” value [1] was “confirmed”, the “Protective effect on mitochondria” value (mitochondria) was “protective effect on mitochondria under oxidative stress conditions” and the “Activation of the Keap1-Nrf2 pathway” value (Keap1-Nrf2 pathway) was “confirmed”. The Cytotoxicity [2] was “lower cytotoxicity than existing antioxidants”, the “Change in cardiolipin molecular species” value ([3]; 24 h, HK-2, n=4, vs control group) was “almost all the cardiolipin molecular species increased significantly” and the “Change in saturated fatty acid chain FA16:0 of cardiolipin” value ([3]; HK-2, n=4) was “decreased”. The “Change in unsaturated fatty acid chain FA18:1 of cardiolipin” value ([3]; HK-2, n=4) was “increased”, the “Change in unsaturated fatty acid chain FA18:2 of cardiolipin” value ([3]; HK-2, n=4) was “increased” and the Radical scavenging ability [4] was “confirmed”.
